# According to patent US7335665B2, “Spirocyclic piperidines as MCH1 antagonists and uses thereof” (H - Lundbeck A/S, priority 2003, dated 2008):
# Biological target: T1, rat MCH1 receptor (Rattus norvegicus, UniProt P97639)
# T1 construct: expressed in transfected cells; host or cells: Human embryonic kidney Peak rapid 293 cells (Peakr293), transient, calcium phosphate; membranes
# Assay: Radioligand binding assay at cloned rat MCH1 receptor ([3H]Compound A displacement)
# Conditions: KI, cloned rat MCH1, membranes of transfected Peakr293 cells, 0.08 nM [3H]Compound A, 25° C., 90 minutes
# Description: For binding assays, pellets of transfected cells are suspended in ice-cold buffer (20 mM Tris.HCl, 5 mM EDTA, pH 7.4) and homogenized by sonication for 7 sec. The cell lysates are centrifuged at 200×g for 5 min at 4° C. The supernatants are then centrifuged at 40,000×g for 20 min at 4° C. The resulting pellets are washed once in the homogenization buffer and suspended in binding buffer (see methods for radioligand binding). Protein concentrations are determined by the method of Bradford (1976) using bovine serum albumin as the standard. Binding assays are usually performed immediately, however it is possible to prepare membranes in batch and store frozen in liquid nitrogen for future use.
# Radioligand binding assays for the rat MCH1 receptor were carried out using plasmid pcDNA3.1-rMCH1-f (ATCC Patent Deposit Designation No. PTA-3505). Plasmid pcDNA3.1-rMCH1-f comprises the regulatory elements necessary for expression of DNA in a mammalian cell operatively linked to DNA encoding the rat MCH1 receptor so as to permit expression thereof. Plasmid pcDNA3.1-rMCH1-f was deposited on Jul. 5, 2001, with the American Type Culture Collection (ATCC), 12301 Parklawn Drive, Rockville, Md. 20852, U.S.A. under the provisions of the Budapest Treaty for the International Recognition of the Deposit of Microorganisms for the Purposes of Patent Procedure and was accorded ATCC Patent Deposit Designation No. PTA-3505.
# Human embryonic kidney Peak rapid 293 cells (Peakr293 cells) were transiently transfected with DNA encoding the MCH1 receptor utilizing the calcium phosphate method and cell membranes were prepared as described above. Binding experiments with membranes from Peakr293 cells transfected with the rat MCH1 receptor were performed with 0.08 nM [^3H]Compound A (custom labeled by Amersham) (the synthesis of Compound A is described in detail below) using an incubation buffer consisting of 50 mM Tris pH 7.4, 10 mM MgCl2, 0.16 mM PMSF, 1 mM 1,10 phenantroline and 0.2% BSA. Binding was performed at 25° C. for 90 minutes. Incubations were terminated by rapid vacuum filtration over GF/C glass fiber filters, presoaked in 5% PEI using […] Tris pH 7.4 as wash buffer. In all experiments, nonspecific binding is defined using […] Compound A.
# The compounds described above were assayed using cloned rat MCH1.
# T1 sequence (P97639 whole entry): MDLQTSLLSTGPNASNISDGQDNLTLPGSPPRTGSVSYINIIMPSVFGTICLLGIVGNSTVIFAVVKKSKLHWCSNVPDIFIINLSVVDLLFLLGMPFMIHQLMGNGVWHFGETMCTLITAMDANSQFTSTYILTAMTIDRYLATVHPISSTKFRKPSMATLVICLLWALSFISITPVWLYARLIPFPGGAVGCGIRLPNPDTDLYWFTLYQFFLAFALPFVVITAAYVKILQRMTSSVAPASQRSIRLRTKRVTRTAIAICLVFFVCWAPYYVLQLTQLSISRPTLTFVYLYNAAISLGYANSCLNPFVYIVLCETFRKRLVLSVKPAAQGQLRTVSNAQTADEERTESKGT
row,Compound,Ki [nM]
1,"O=C(NCCCCCCN1CCC2(CCc3ccccc32)CC1)c1ccc(Oc2cc(Cl)cc(Cl)c2)o1 [Example 16, [5-(3,5-DICHLOROPHENOXY)(2-FURYL)]-N-(6-(SPIRO[INDANE-1,4′-PIPERIDINE]-10-YL)HEXYL)CARBOXAMIDE]",450
2,"O=C(NCCCN1CCC2(CC1)OCc1ccccc12)C(c1ccc(F)cc1)c1ccc(F)cc1 [Example 84, 2,2-BIS(4-FLUOROPHENYL)-N-(3-(SPIRO[1,3-DIHYDROISOBENZOFURAN-1,4′-PIPERIDINE]-10-YL)PROPYL)ACETAMIDE]",4.9
3,O=C(NCCCCCCN1CCC2(CCc3ccccc32)CC1)c1cc(F)cc(F)c1 [Example 14],843
4,"O=C(NCCCN1CCC2(CC1)OCc1ccccc12)C1(c2ccc(F)cc2)CCCC1 [Example 79, [(4-FLUOROPHENYL)CYCLOPENTYL]-N-(3-(SPIRO[1,3-DIHYDROISOBENZOFURAN-1,4′-PIPERIDINE]-10-YL)PROPYL)CARBOXAMIDE]",514
5,"Cc1ccc(C(C(=O)NCCCN2CCC3(CCc4ccccc43)CC2)c2ccc(C)cc2)cc1 [Example 48, 2,2-BIS(4-METHYL)PHENYL)-N-(3-(SPIRO[INDANE-1,4′-PIPERIDINE]-10-YL)PROPYL)ACETAMIDE]",29.7
6,"O=C(NCCCCCN1CCC2(C=Cc3ccccc32)CC1)C(c1ccccc1)c1ccccc1 [Example 40, 2,2-DIPHENYL-N-(5-(SPIRO[INDENE-1,4′-PIPERIDINE]-10-YL)PENTYL)ACETAMIDE]",384
7,"S=C(NCCCCCN1CCC2(CCc3ccccc32)CC1)Nc1cccc2ccccc12 [Example 22, (NAPHTHYLAMINO)[(5-(SPIRO[INDANE-1,4′-PIPERIDINE]-10-YL)PENTYL)AMINO]METHANE-1-THIONE]",517
8,"O=C(NCCCN1CCC2(CC1)OCc1ccccc12)C(c1ccccc1)c1ccccc1 [Example 76, 2,2-DIPHENYL-N-(3-(SPIRO[1,3-DIHYDROISOBENZOFURAN-1,4′-PIPERIDINE]-10-YL)PROPYL)ACETAMIDE]",20.6
9,"O=C(NCCCN1CCC2(C=Cc3ccccc32)CC1)C(c1ccccc1)(c1ccccc1)c1ccccc1 [Example 64, 2,2,2-TRIPHENYL-N-(3-(SPIRO[INDENE-1,4′-PIPERIDINE]-10-YL)PROPYL)ACETAMIDE]",36
10,"O=C(NCCCN1CCC2(CC1)OCc1ccccc12)C(c1ccccc1)(c1ccccc1)c1ccccc1 [Example 77, 2,2,2-TRIPHENYL-N-(3-(SPIRO[1,3-DIHYDROISOBENZOFURAN-1,4′-PIPERIDINE]-10-YL)PROPYL)ACETAMIDE]",151
11,"O=C(NCCCN1CCC2(CCc3ccccc32)CC1)C(c1ccccc1)(c1ccccc1)c1ccccc1 [Example 49, 2,2,2-TRIPHENYL-N-(3-(SPIRO[INDANE-1,4′-PIPERIDINE]-10-YL)PROPYL)ACETAMIDE]",121
12,"CCCc1nn(-c2ccc(Cl)cc2)cc1C(=O)NCCCCCCN1CCC2(CCc3ccccc32)CC1 [Example 10, [1-(4-CHLOROPHENYL)-3-PROPYL)PYRAZOL-4-YL]-N-(6-(SPIRO[INDANE-1,4′-PIPERIDINE]-10-YL)HEXYL)CARBOXAMIDE]",764
13,"CC(C(=O)NCCCN1CCC2(CC1)OCc1ccccc12)c1ccc(F)cc1 (stereo not drawn) [Example 82, 2-(4-FLUOROPHENYL)-N-(3-(SPIRO[1,3-DIHYDROISOBENZOFURAN-1,4′-PIPERIDINE]-10-YL) PROPYL) PROPANAMIDE]",679

# Same assay, conditions: cloned rat MCH1, membranes of transfected Peakr293 cells, 0.08 nM [3H]Compound A, 25° C., 90 minutes; read-out: KI
row,Compound,Ki [nM]
1,"Cc1onc(-c2ccccc2Cl)c1C(=O)NCCCCN1CCC2(CCc3ccccc32)CC1 [Example 35, [3-(2-CHLOROPHENYL)-5-METHYLISOXAZOL-4-YL]-N-(4-(SPIRO[INDANE-1,4′-PIPERIDINE]-10-YL)BUTYL)CARBOXAMIDE]",825
2,"O=C(NCCCN1CCC2(CC1)Cc1ccccc1C2=O)C(c1ccc(F)cc1)c1ccc(F)cc1 [Example 92, 2,2-BIS(4-FLUOROPHENYL)-N-[3-(1-OXOSPIRO[INDANE-2,4′-PIPERIDINE]-10-YL)PROPYL]ACETAMIDE]",61.6
3,"O=C(NCCCCN1CCC2(CCc3ccccc32)CC1)c1ccc(F)c(F)c1 [Example 60, (3,4-DIFLUOROPHENYL)-N-(4-(SPIRO[INDANE-1,4′-PIPERIDINE]-10-YL)BUTYL)CARBOXAMIDE]",42.3
4,"O=C(NCCCN1CCC2(CCc3ccccc32)CC1)C1(c2ccc(Cl)cc2)CCCCC1 [Example 53, 1-[(4-CHLOROPHENYL)CYCLOHEXYL]-N-(3-(SPIRO[INDANE-1,4′-PIPERIDINE]-10-YL)PROPYL)CARBOXAMIDE]",56.9
5,"Cc1ccc(C2(C(=O)NCCCN3CCC4(CC3)OCc3ccccc34)CCCC2)cc1 [Example 75, [(4-METHYL)PHENYL)CYCLOPENTYL]-N-(3-(SPIRO[1,3-DIHYDROISOBENZOFURAN-1,4′-PIPERIDINE]-10-YL)PROPYL)CARBOXAMIDE]",700
6,"O=C(NCCCN1CCC2(CC1)Cc1ccccc1C2)C(c1ccccc1)c1ccccc1 [Example 61, 2,2-DIPHENYL-N-(3-(SPIRO[INDANE-2,4′-PIPERIDINE]-10-YL)PROPYL)ACETAMIDE]",49
7,"CC(C)c1ccc2c(c1)COC21CCN(CCCNC(=O)C(c2ccccc2)c2ccccc2)CC1 [Example 102, N-{3-[5-(METHYLETHYL)SPIRO[1,3-DIHYDROISOBENZOFURAN-1,4′-PIPERIDINE]-10-YL]PROPYL}-2,2-DIPHENYLACETAMIDE]",162
8,"O=C(NCCN1CCC2(CCc3ccccc32)CC1)C(c1ccccc1)c1ccccc1 [Example 41, 2,2-DIPHENYL-N-(2-(SPIRO[INDANE-1,4′-PIPERIDINE]-10-YLETHYL) ACETAMIDE]",103
9,"CC(C(=O)NCCCN1CCC2(CCc3ccccc32)CC1)(c1ccccc1)c1ccccc1 [Example 47, 2,2-DIPHENYL-N-(3-(SPIRO[INDANE-1,4′-PIPERIDINE]-10-YL)PROPYL)PROPANAMIDE]",154
10,"O=C1OC2(CCN(CCCNC(=O)C(c3ccccc3)c3ccccc3)CC2)c2ccccc21 [Example 93, N-[3-(1-OXOSPIRO[3-HYDROISOBENZOFURAN-3,4′-PIPERIDINE]-10-YL)PROPYL]-2,2-DIPHENYLACETAMIDE]",783
11,"O=C(NCCCN1CCC2(C=Cc3ccccc32)CC1)C1(c2ccc(F)cc2)CCCC1 [Example 70, [(4-FLUOROPHENYL)CYCLOPENTYL]-N-(3-(SPIRO[INDENE-1,4′-PIPERIDINE]-10-YL)PROPYL)CARBOXAMIDE]",203
12,"O=C(NCCCN1CCC2(CCCc3ccccc32)CC1)C(c1ccccc1)c1ccccc1 [Example 39, 2,2-DIPHENYL-N-(3-SPIRO[1,2,3,4-TETRAHYDRONAPHTHALENE-1,4′-PIPERIDINE]-11-YLPROPYL)ACETAMIDE]",128
13,"O=C(NCCCN1CCC2(CCc3ccccc32)CC1)C(c1ccccc1)c1ccccc1 [Example 6, 2,2-DIPHENYL-N-(3-(SPIRO[INDANE-1,4′-PIPERIDINE]-10-YL)PROPYL)ACETAMIDE]",33.8
14,"O=C(NCCCCCCN1CCC2(CCc3ccccc32)CC1)c1ccc(-c2ccccc2)cc1 [Example 2, (4-PHENYL)PHENYL)-N-(6-(SPIRO[INDANE-1,4′-PIPERIDINE]-10-YL)HEXYL)CARBOXAMIDE]",970
15,"CC(C(=O)NCCCN1CCC2(C=Cc3ccccc32)CC1)c1ccc(Cl)cc1 (stereo not drawn) [Example 66, 2-(4-CHLOROPHENYL)-N-(3-(SPIRO[INDENE-1,4′-PIPERIDINE]-10-YL)PROPYL)PROPANAMIDE]",140
16,"O=C(NCCCN1CCC2(C=Cc3ccccc32)CC1)C1(c2ccc(Cl)cc2)CCC1 [Example 74, [(4-CHLOROPHENYL)CYCLOBUTYL]-N-(3-(SPIRO[INDENE-1,4′-PIPERIDINE]-10-YL)PROPYL)CARBOXAMIDE]",185
17,"O=C(NCCCCN1CCC2(CCc3ccccc32)CC1)c1cccnc1Oc1ccc(Cl)cc1 [Example 32, [2-(4-CHLOROPHENOXY)(3-PYRIDYL)]-N-(4-(SPIRO[INDANE-1,4′-PIPERIDINE]-10-YL)BUTYL)CARBOXAMIDE]",388
18,"CC(C)(C)c1cc(C(=O)NCCCCCN2CCC3(C=Cc4ccccc43)CC2)n(Cc2ccccc2)n1 [Example 37, [3-(TERT-BUTYL)-1-BENZYL)PYRAZOL-5-YL]-N-(5-(SPIRO[INDENE-1,4′-PIPERIDINE]-10-YL)PENTYL)CARBOXAMIDE]",794
19,"O=C(NCCCN1CCC2(CCc3ccccc32)CC1)C1(c2ccc(Cl)cc2)CC1 [Example 58, [1-(4-CHLOROPHENYL)CYCLOPROPYL]-N-(3-(SPIRO[INDANE-1,4′-PIPERIDINE]-10-YL)PROPYL)CARBOXAMIDE]",150
20,"O=C(NCCCCN1CCC2(CCc3ccccc32)CC1)c1cccc(Cl)c1 [Example 18, (3-CHLOROPHENYL)-N-(4-(SPIRO[INDANE-1,4′-PIPERIDINE]-10-YL)BUTYL)CARBOXAMIDE]",342
